In US5079260A, “Method for treating inflammation and compounds and compositions suitable for use therein” (Nova Pharmaceutical Corporation, priority 1990, dated 1992):

Key:
[1] = tested on: Ear Edema Caused by Oxazolone; test: Inhibition of Ear Edema Caused by Oxazolone (II), Table 10; format: in vivo, CF-1 mice; details: i.p., 24 h
Procedure: Inhibition of Ear Edema Caused by Oxazolone (II)
CF-1 mice, 25-30 g body weight, five to six animals per group were used. The mice were sensitized to the irritant two weeks prior to the test by dribbling 100 μL of a 3% solution of oxazolone in acetone onto the abdominal skin of the animal. Test compounds were administered intraperitoneally as follows. […] The irritant, 3% oxazolone in acetone, was added to the surface of the ear, 5 μL added to the upper surface and 5 μL added to the lower surface. After twenty four hours, the thickness of the ear was measured to 0.01 mm by a micrometer with loose drag, positioned at the lateral-most edge of the mid-point of the pinna. Data were calculated as the inhibition of increased ear thickness compared to control animals' receiving only the irritant.

[2] = tested on: Ear Edema Caused by Xylene; test: Inhibition of Ear Edema Caused by Xylene (II), Table 9; format: in vivo, CF-1 mice; details: i.p., 2 h
Procedure: Inhibition of Ear Edema Caused by Xylene (II)
(§1) CF-1 mice, 25-30 g body weight, six animals per group, were used. The requisite amount of the test compound was dissolved is dimethyl sulfoxide or 0.5% methylcellulose and 100 μL of the solution was injected intraperitoneally 30 minutes prior to the administration the irritant. The irritant xylene was applied to the surface of the ear, 20 μL to the upper surface and 20 μL to the lower surface, After two hours, the thickness of the ear was measured to 0.01 mm by a micrometer with the loose drag positioned at the lateral-most edge of the mid-point of the pinna. Data were calculated as the percent inhibition by the test compound of increased ear thickness compared to control animals receiving only the irritant.

[3] = tested on: Ear Edema Caused by Arachidonic Acid; test: Inhibition of Ear Edema Caused by Arachidonic Acid (II), Table 8; format: in vivo, CF-1 mice; details: i.p., sixty minutes
Procedure: Inhibition of Ear Edema Caused by Arachidonic Acid (II)
as §1, with “of 100 mg/kg of arachidponic acid. A solution of this irritant, b 100 mg/mL in ethanol,” for “the irritant. The irritant xylene”, “5” for “20”, “surface.” for “surface,”, “sixty minutes,” for “two hours,”, “inhibityion” for “inhibition”, “recieveing” for “receiving”

[4] = tested on: Ear Edema Caused By Tetradecanoylphorbol Acetate; test: Inhibition of Ear Edema Caused by Tetradecanoylphorbol Acetate (II), Table 7; format: in vivo, CF-1 Mice; details: i.p., 3 h
Procedure: Inhibition of Ear Edema Caused by Tetradecanoylphorbol Acetate (II)
CF-1 Mice, 25-30 g body weight, six animals per group were used. Test compounds were administered intraperitoneally or topically as follows. For intraperitoneal administration, the test compound was dissolved in dimethyl sulfoxide or 0.5% methylcellulose and 100 microliters was injected 30 minutes prior to irritant (100 mg/kg, i.p.). […] A solution of the irritant, tetradecanoylphorbol acetate, 200 μg/mL, was added to the surface of the ear, 5 μL to the upper surface and 5 μL to the lower surface. After three hours, the thickness of the ear was measured to 0.01 mm by a micrometer with loose drag, positioned at the lateral-most edge of the mid-point of the pinna. Data were calculated as the inhibition of increased ear thickness compared to control animals receiving only the irritant.

Compound | % Inhibition Intraperitoneal ([1]; 10 mg/kg) | % Inhibition Intraperitoneal ([1]; 30 mg/kg) | % Inhibition Intraperitoneal ([1]; 100 mg/kg) | % Inhibition ([2]; 10 mg/kg) | % Inhibition ([2]; 30 mg/kg) | % Inhibition ([2]; 100 mg/kg) | % Inhibition Intraperitoneal ([3]; 10 mg/kg) | % Inhibition Intraperitoneal ([3]; 30 mg/kg) | % Inhibition Intraperitoneal ([3]; 100 mg/kg) | % Inhibition Intraperitoneal ([4]; 10 mg/kg) | % Inhibition Intraperitoneal ([4]; 30 mg/kg) | % Inhibition Intraperitoneal ([4]; 100 mg/kg)
Cc1cccc2c1-c1ccccc1C2COC(=O)N[C@@H](CC(C)C)C(=O)O (stereo partly drawn) [NPC 15325, N-{[9H-(4-Methylfluoren-9-yl)methoxy]carbonyl}-L-leucine] | 22% | 24% | 49% | 16% | 25% | 78% | 52% | 63% | 100% | 36% | 11% | 82%
CCOC(=O)[C@H](CC(C)C)NC(=O)OCC1c2ccccc2-c2ccccc21 [NPC 15327, N-[(9H-Fluoren-9-ylmethoxy)carbonyl]-L-leucine ethyl ester] | – | – | – | 18% | 8% | 19% | – | – | – | 37% | 64% | 77%
CC(C)C[C@H](NC(=O)OCC1c2ccccc2-c2ccccc21)C(=O)OCc1ccccc1 [NPC 15328, N-[(9H-Fluoren-9-ylmethoxy)carbonyl]-L-leucine benzyl ester] | – | – | – | 19% | 29% | 13% | – | – | – | 49% | 47% | 62%
CCCC[C@H](NC(=O)CCC1c2ccccc2-c2ccccc21)C(=O)O [NPC 15894, N-[3-(9H-Fluoren-9-yl)propionyl]-L-norleucine, quarter hydrate] | 29% | 14% | 35% | 0% | 0% | 34% | 22% | 40% | 60% | 11% | 0% | 68%
O=C(CCC1c2ccccc2-c2ccccc21)N[C@@H](CCc1ccccc1)C(=O)O [NPC 15895, N-[3-(9H-Fluoren-9-yl)propionyl]-L-Homophenylalanine, quarter hydrate] | 4% | 12% | 71% | 0% | 0% | 51% | 14% | 26% | 52% | 68% | 71% | 67%
O=C(CCC1c2ccccc2-c2ccccc21)N[C@@H](Cc1ccccc1)C(=O)O [NPC 15896, N-[3-(9H-Fluoren-9-yl)propionyl]-L-Phenylalanine] | – | – | – | 28% | 24% | 21% | 16% | 24% | 72% | 0% | 0% | 84%
Cc1cccc2c1-c1ccccc1C2COC(=O)N[C@H](C(=O)O)C(C)(C)C (stereo partly drawn) [NPC 15904, N-{[9H-(4-Methylfluoren-9-yl)methoxy]carbonyl}-L-tert-leucine] | 21% | 54% | 79% | 0% | 10% | 68% | 19% | 54% | 79% | 16% | 0% | 43%
CCCC[C@H](NC(=O)OCC1c2ccccc2-c2cccc(C)c21)C(=O)O (stereo partly drawn) [NPC 15951, N-{[9H-(1-Methylfluoren-9-yl)methoxy]carbonyl}-L-norleucine] | 33% | 23% | 49% | 40% | 62% | 62% | 11% | 18% | 56% | 41% | 39% | 70%
Cc1cccc2c1C(COC(=O)N[C@H](C(=O)O)C(C)(C)C)c1ccccc1-2 (stereo partly drawn) [NPC 15952, N-{[9H-(1-Methylfluoren-9-yl)methoxy]carbonyl}-L-tert-leucine] | 21% | 24% | 72% | 29% | 39% | 43% | 43% | 47% | 50% | 27% | 75% | 67%
Cc1cccc2c1-c1ccccc1C2COC(=O)N[C@@H](CCc1ccccc1)C(=O)O (stereo partly drawn) [NPC 15961, N-{[9H-(4-Methylfluoren-9-yl)methoxy]carbonyl}-L-homophenylalanine] | 29% | 23% | 92% | 41% | 41% | 57% | – | – | – | – | – | –
COc1ccc2c(c1)C(CCC(=O)N[C@@H](CC(C)C)C(=O)O)c1ccccc1-2 (stereo partly drawn) [NPC 15968, N-{9H-[3-(2-Methoxyfluoren-9-yl)propionyl]}-L-leucine] | 24% | 24% | 66% | 23% | 62% | 57% | – | – | – | – | – | –
Cc1cccc2c1C(CCC(=O)N[C@@H](CCc1ccccc1)C(=O)O)c1ccccc1-2 (stereo partly drawn) [NPC 15974, N-{9H-[3-(1-Methylfluoren-9-yl)propionyl]}-L-homophenylalanine] | 0% | 23% | 48% | 48% | 57% | 59% | – | – | – | – | – | –
Cc1cccc2c1-c1ccccc1C2CCC(=O)N[C@@H](CC(C)C)C(=O)O (stereo partly drawn) [NPC 15975, N-{9H-[3-(4-Methylfluoren-9-yl)propionyl]}-L-leucine quarter hydrate] | 36% | 19% | 73% | 51% | 22% | 49% | – | – | – | – | – | –
CCCC[C@H](NC(=O)CCC1c2ccccc2-c2cccc(C)c21)C(=O)O (stereo partly drawn) [NPC 15976, N-[9H-[3-(1-Methylfluoren-9-yl)propionyl]}-L-norleucine, quarter hydrate] | 10% | 8% | 73% | 59% | 33% | 62% | – | – | – | – | – | –
